“Also recorded” adds a separate entry of the source.
Key:
[1] = system: SH-SY5Y cells; assay: CPT1 inhibition assay (etomoxir), oxidation rates in SH-SY5Y cells; format: cell-based; conditions: for Oxidation rate +Etomoxir / Oxidation rate −Etomoxir: 250 μM substrate, mean±SEM; for Oxidation rate +Etomoxir: 50 μM etomoxir; for Oxidation rate −Etomoxir: without etomoxir
Experimental: C16:BSA complex (5:1 molar ratio fatty acid:BSA). […] Both solutions were aliquoted and stored at −20° C. until further use.
A stock solution of 50 mM etomoxir was prepared in sterile cell culture grade water and stored in aliquots at −20° C. On day 5 of culture, growth medium was replaced with 2 ml DMEM formula containing 3 mM D-glucose and 10% FBS. Cells were incubated with or without the presence of 50 μM etomoxir, for 20 h at 37° C. and 5% CO2. […] C8 or [U-^13C] C16:BSA, with 50 μM etomoxir also added to previously exposed cells. Wells were then sealed with heavy mineral oil, with cells incubated and media sampled as previously described.
Samples were thawed at room temperature and 100 μl 1M hydrochloric acid was injected through the septum into each vial to release CO2 from the media. Vials were centrifuged for 30 seconds at 500×g. Samples were then analysed on a GasBench II coupled to a Thermo Delta-XP isotope-ratio mass spectrometer.

[2] = target: T1, GluA2/3 AMPA receptors (Homo sapiens, UniProt P42262+P42263); conditions: Chang et al., Brain 2016; cited from earlier work
T1 construct: expressed in transfected cells; host or cells: Xenopus laevis oocytes injected with in vitro transcribed cRNA (GluA2 and GluA3, nominal 1:1)

[3] = clinically relevant concentrations, in vitro and in vivo; cited from earlier work
[4] = cited from earlier work
[5] = system: SH-SY5Y cells; assay: C10 and C8 co-incubation, C10 oxidation in SH-SY5Y cells; format: cell-based; conditions: 250 μM [1-13C]C10 plus 62.5 μM unlabelled C8
Experimental: The effects of co-incubating C10 and C8 on C10 oxidation in SH-SY5Y cells were also explored. Additional stock solutions of 25 mM C8 and 100 mM [1-^13C]C10 were prepared in DMSO, sterile-filtered and stored in aliquots at −20° C. Cells were cultured and incubated for 20 h in 10% FBS-supplemented DMEM media containing 3 mM D-glucose, as previously described. Media was then removed and cells washed. Media was then replaced with 3 ml DMEM containing either 3 mM [U-^13C]glucose and vehicle control DMSO, or 3 mM unlabelled D-glucose. In each D-glucose-supplemented well, cells were treated with either a final concentration of 250 μM [1-^13C] C10, or 250 μM [1-^13C]C10 plus 62.5 μM C8, at a fixed total volume. Wells were then sealed with heavy mineral oil, cells incubated and media sampled as previously outlined.
Samples were thawed at room temperature and 100 μl 1M hydrochloric acid was injected through the septum into each vial to release CO2 from the media. Vials were centrifuged for 30 seconds at 500×g. Samples were then analysed on a GasBench II coupled to a Thermo Delta-XP isotope-ratio mass spectrometer. Ten repeat injections were carried out per sample, with d^13C/^12C ratios measured against Vienna Pee Dee Belemnite (VPDB) using a calibrated CO2 reference gas. ^13CO2/^12CO2 ratios were converted to mole percent excess using absolute molar ratio of ^13C to ^12C (0.0111796) in VPDB. […]

[6] = target: T1, GluA2/3 AMPA receptors; assay: AMPA receptor (GluA2/3) currents in Xenopus oocytes, two-electrode voltage clamp; format: cell-based; conditions: GluA2/3 in oocytes, 100 uM glutamate, total medium chain fatty acid content 1 mM
Experimental: The AMPA receptor (flip isoform) cDNAs inserted in a SP6 polymerase expression vector (pSP6T) were a gift from Prof Ralf Schoepfer (NPP, UCL). RNA was transcribed in vitro from Miu I linearised transcripts using the SP6 Promega RiboMax RNA synthesis kit (Madison, Wis.) according to manufacturers protocols except for the addition of 0.75 mM capping nucleotide m7G(5′)ppp(5′)G (Promega, Madison, Wis.) and 1.6 mM GTP. cRNA concentrations and integrity were estimated by the intensity of fluorescence bands in RNA denaturating gels. AMPA receptor cRNAs were mixed in a nominal 1:1 ratio and approximately 5 ng was injected per oocyte.
Xenopus laevis oocytes were purchased from the European Xenopus Resource Centre, University of Portsmouth. Stage V to VI oocytes were mechanically dissected and then subjected to gentle shaking for approximately 30-50 min at room temperature with modified Barth's solution (in mM): NaCl 88, KCl 1, NaHCO32.4, MgCb 0.82, CaCl2) 0.77, Tris-Cl 15, adjusted to pH 7.4 with NaOH (Sigma-Aldrich, UK), supplemented with 50 IU/ml penicillin and 50 μg/ml streptomycin (Invitrogen, UK) and 50 μg/ml tetracycline (Sigma-Aldrich, UK) and 1% collagenase (type 1A). […]

[7] = system: SH-SY5Y cells; format: cell-based; conditions: human, 6 h, 250 μM
Experimental: SH-SY5Y cells were utilised between passages 20-24 for all experimental procedures. Cells were cultured in 1:1 Dulbecco's Modified Eagle's Medium (DMEM)/F12 media, containing 17.5 mM glucose and supplemented with 100 ml/L heat-inactivated foetal bovine serum (FBS) and 10 ml/L 200 mM L-glutamine. All cells were maintained in a humidified atmosphere at 37° C. and 5% CO2. Cells were sub-cultured by washing with 10 ml/flask Mg^2+1c a ^2+-free Dulbecco's phosphate-buffered saline (DPBS), lifted with 2 ml 0.25% trypsin-EDTA and suspended in 8 ml culture medium to inactivate the trypsin. The cell suspension was transferred to a falcon tube and centrifuged for 4 minutes at 500×g. The supernatant was removed and cells suspended in a known volume of fresh culture medium. Cells were counted using the Trypan Blue exclusion test for viability. A known volume of the cell suspension was mixed 1:1 with 0.4% Trypan Blue solution and counted with a Bio-Rad TC20™ Automated Cell Counter (Hemel Hempstead, UK). […]
Samples were thawed at room temperature and 100 μl 1M hydrochloric acid was injected through the septum into each vial to release CO2 from the media. […] Samples were then analysed on a GasBench II coupled to a Thermo Delta-XP isotope-ratio mass spectrometer. […]

[8] = animal models; cited from earlier work
[9] = system: SH-SY5Y cells; assay: Cell viability, Trypan Blue exclusion test; format: cell-based; conditions: 50 μM etomoxir, 20 h + 6 h; data not shown
Experimental: Cells were incubated for 20 h at 37° C. and 5% CO2 with 50 μM etomoxir in DMEM media supplemented with 10% FBS, and then a further 6 h at 37° C. with 50 μM etomoxir in DMEM media without FBS. Cells were then lifted from wells with 1 ml 0.25% trypsin-EDTA, suspended in 4 ml culture medium and centrifuged for 4 minutes at 500×g. Supernatant was removed and cells suspended in 1 ml of fresh culture medium. Viability of cells was then tested using the Trypan Blue exclusion test.

T1 sequence (P42262 25-883 isoform P42262-2 limits assumed): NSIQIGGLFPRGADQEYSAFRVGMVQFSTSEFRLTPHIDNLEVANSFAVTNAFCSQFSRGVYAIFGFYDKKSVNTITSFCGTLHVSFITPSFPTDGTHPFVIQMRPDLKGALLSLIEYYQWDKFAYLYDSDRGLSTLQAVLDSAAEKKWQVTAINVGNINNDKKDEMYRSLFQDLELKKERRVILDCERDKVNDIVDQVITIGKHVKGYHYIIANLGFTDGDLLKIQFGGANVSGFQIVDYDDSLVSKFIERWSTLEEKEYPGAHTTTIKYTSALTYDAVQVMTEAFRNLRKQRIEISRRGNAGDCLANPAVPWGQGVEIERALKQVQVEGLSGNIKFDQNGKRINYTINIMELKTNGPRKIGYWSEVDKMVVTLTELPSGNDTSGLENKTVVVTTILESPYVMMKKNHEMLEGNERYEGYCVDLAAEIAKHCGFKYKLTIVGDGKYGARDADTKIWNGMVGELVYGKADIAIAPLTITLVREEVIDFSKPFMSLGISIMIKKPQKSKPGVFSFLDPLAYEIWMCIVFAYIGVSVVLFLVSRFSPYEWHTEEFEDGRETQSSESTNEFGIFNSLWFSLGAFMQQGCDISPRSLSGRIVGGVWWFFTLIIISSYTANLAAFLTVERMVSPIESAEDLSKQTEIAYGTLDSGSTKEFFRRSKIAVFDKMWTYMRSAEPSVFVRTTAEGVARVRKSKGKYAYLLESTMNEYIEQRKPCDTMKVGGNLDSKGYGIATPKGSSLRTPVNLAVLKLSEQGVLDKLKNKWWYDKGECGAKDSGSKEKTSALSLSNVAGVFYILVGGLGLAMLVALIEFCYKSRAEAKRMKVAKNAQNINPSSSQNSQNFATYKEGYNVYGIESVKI
T1 sequence (P42263 29-894 isoform P42263-2 limits assumed): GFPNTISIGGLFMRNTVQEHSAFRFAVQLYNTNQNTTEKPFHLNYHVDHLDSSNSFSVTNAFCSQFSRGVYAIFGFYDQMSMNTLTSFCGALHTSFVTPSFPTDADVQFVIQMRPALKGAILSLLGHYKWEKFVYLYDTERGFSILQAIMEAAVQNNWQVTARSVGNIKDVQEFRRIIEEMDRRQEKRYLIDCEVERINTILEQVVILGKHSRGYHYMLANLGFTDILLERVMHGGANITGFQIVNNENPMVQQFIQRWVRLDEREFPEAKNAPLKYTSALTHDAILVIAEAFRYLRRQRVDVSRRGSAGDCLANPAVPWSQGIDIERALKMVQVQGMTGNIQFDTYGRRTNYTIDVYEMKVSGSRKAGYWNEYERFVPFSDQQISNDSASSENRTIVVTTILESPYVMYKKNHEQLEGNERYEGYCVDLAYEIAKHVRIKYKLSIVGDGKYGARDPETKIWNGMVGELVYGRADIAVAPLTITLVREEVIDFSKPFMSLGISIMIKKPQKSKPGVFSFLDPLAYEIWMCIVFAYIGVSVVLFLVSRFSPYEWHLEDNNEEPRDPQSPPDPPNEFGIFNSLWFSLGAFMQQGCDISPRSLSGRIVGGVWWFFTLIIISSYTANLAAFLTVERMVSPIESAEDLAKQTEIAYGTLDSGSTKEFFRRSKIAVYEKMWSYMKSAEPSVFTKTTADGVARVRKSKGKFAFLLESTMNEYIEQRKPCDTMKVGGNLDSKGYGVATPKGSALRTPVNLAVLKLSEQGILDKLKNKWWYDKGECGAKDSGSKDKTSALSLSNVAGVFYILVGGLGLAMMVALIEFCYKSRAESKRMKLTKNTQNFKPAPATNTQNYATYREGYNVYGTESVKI

| Structure (SMILES) | Oxidation rate +Etomoxir [1] | Oxidation rate −Etomoxir [1] | reduction of oxidation in the presence of etomoxir ([1]; human, 6 h, 250 μM) | effect on AMPA receptors / AMPA receptor currents [2] | anti-seizure effects [3] | concentration in peripheral blood (average) [4] | concentration in peripheral blood (range) [4] | other results |
| --- | --- | --- | --- | --- | --- | --- | --- | --- |
| CCCCCCC[13C](=O)O [[1-^13C]C8, [1^13C]octanoic acid] | 0.75 ± 0.06 nmol/h | 1.14 ± 0.11 nmol/h | – | – | – | – | – | – |
| CCCCCCCC(=O)O [octanoic acid, Octanoic acid] | – | – | 34% | no effect on AMPA receptor currents | not | around 306 μM | 104 to 859 µM | – |
| CCOC(=O)[C@@]1(CCCCCCOc2ccc(Cl)cc2)CO1 [etomoxir] | – | – | – | – | – | – | – | effect on viability of SH-SY5Y cells [9]: no effect on viability |

Now from value to molecule, other results behind:

| Oxidation rate +Etomoxir [1] | Oxidation rate −Etomoxir [1] | reduction of oxidation in the presence of etomoxir ([1]; human, 6 h, 250 μM) | Structure (SMILES) | effect on AMPA receptors / AMPA receptor currents [2] | anti-seizure effects [3] | concentration in peripheral blood (average) [4] | concentration in peripheral blood (range) [4] | other results |
| --- | --- | --- | --- | --- | --- | --- | --- | --- |
| 0.002 ± 0.003 nmol/h | 0.22 ± 0.05 nmol/h | – | [13CH3][13CH2][13CH2][13CH2][13CH2][13CH2][13CH2][13CH2][13CH2][13CH2][13CH2][13CH2][13CH2][13CH2][13CH2][13C](=O)O [[U-^13C]C16, [U-^13C]palmitic acid, reference compound] | – | – | – | – | reduction of oxidation in the presence of etomoxir ([1]; 50 μM etomoxir (CPT1 inhibition)): 99% |
| – | – | 95% | CCCCCCCCCC(=O)O [decanoic acid, Decanoic acid] | inhibits AMPA receptors | acute antiseizure effects; also recorded: has anti-seizure effects | 157 µM | 87 to 552 µM | impairment of oxidation rate of C10 by C8 addition [5]: 29%; inhibition of AMPA receptor currents by decanoic acid:octanoic acid ratios [6]: no increase in AMPA receptor inhibition; C10 oxidation lower than that of C8 by [7]: approximately 80%; ratio in blood plasma to brain [8]: around 0.7 |
